Patent US20130150363A1, “Method of Treating Cancer Using a cMET and AXL Inhibitor and an ErbB Inhibitor” (GlaxoSmithKline, priority 2008, published 2013)

Experiments:
Type in all cases: cell-based
[1] = system: NCI-H2170 lung carcinoma cells; experiment: Cell growth inhibition (CellTiter-Glo), NCI-H2170; conditions: Homo sapiens, NCI-H2170, 72 h, 3 days
Description: (§1) Esophageal carcinoma cell line OE33 was purchased from ECACC European Collection of Cell Cultures (UK). Breast cancer cell line JIMT-1 and gastric carcinoma cell line MKN-45 were purchased from Deutsche Sammlung von Mikroorganismen and Zellkulturen GmbH (Germany); KPL-4, a human breast cancer cell line was kindly provided by Prof. J Kurebayashi (Kawasaki Medical School, Kurashiki, Japan). […] The LICR-LON-HN5 head and neck carcinoma cell line (HN5) was a gift from the Institute of Cancer Research, Surrey, U.K. HN5C12 was developed by single-cell cloning of HN5 followed by exposure to increasing concentrations of lapatinib. […] Cell growth inhibition was determined via CellTiter-Glo cell viability assays. […] BT474-J4 and HN5C12 were washed with PBS and plated in their culture media without lapatinib. […] ATP levels were determined by adding Cell Titer Glo0 (Promega), incubating for 20 minutes then the luminescent signal was read on the SpectraMax M5 plate with a 0.5 second integration time. Cell growth was calculated relative to vehicle (DMSO) treated control wells. […] y=([…]) where A is the minimum response (ymin), B is the maximum response (ymax), c is the inflection point of the curve (EC50), d is the Hill coefficient, and x is the log10 compound concentration (moles/L). CI values were calculated with the interpolated IC50 values and the mutually non-exclusive equation derived by Chou and […](a)+Db/IC50(b)+(Da×Db)/(IC50(a)×IC50(b)) where IC50(a) is the IC50 of the inhibitor A; IC50(b) is the IC50 for the inhibitor B; […] Excess Over Highest Single Agent (EOHSA) is defined as a statistically significant improvement in the combination compared to the component monotherapies. […] See Borisy et al. (2003) or Hung et al. (1993) for examples and discussion. Analysis was conducted using two-factor analysis of variance with interaction (model terms were dose of drug A, dose of drug B, and interaction between doses of drug A and B), followed by linear contrasts between each combination group and corresponding monotherapies. Analysis was conducted using SAS (version 9, provided by SAS Institute, Cary, N.C.). EOHSA at each dose was calculated as the minimum difference in average % inhibition between the combination and each monotherapy, from the appropriate ANOVA contrast. Since there are many comparisons for the % inhibition endpoint, p-value adjustment for multiple comparisons was performed. Hommel's procedure was implemented in order to improve the power while retaining […] Error Rate (FWE) control by using a sequentially rejective method. The p-values for both synergy and antagonism were calculated using this adjustment.

[2] = system: HN5C12 (HN5C2) lapatinib resistant head and neck carcinoma cells; experiment: Cell growth inhibition (CellTiter-Glo), HN5C12; conditions: Homo sapiens, 72 h, 3 days
Description: as §1

[3] = system: HN5 head and neck carcinoma cells; experiment: Cell growth inhibition (CellTiter-Glo), HN5; conditions: Homo sapiens, 72 h, 3 days
Description: as §1

[4] = system: NCI-H1573 lung carcinoma cells; experiment: Cell growth inhibition (CellTiter-Glo), NCI-H1573; conditions: Homo sapiens, NCI-H1573, 72 h, 3 days
Description: (§2) Esophageal carcinoma cell line OE33 was purchased from ECACC European Collection of Cell Cultures (UK). Breast cancer cell line JIMT-1 and gastric carcinoma cell line MKN-45 were purchased from Deutsche Sammlung von Mikroorganismen and Zellkulturen GmbH (Germany); KPL-4, a human breast cancer cell line was kindly provided by Prof. J Kurebayashi (Kawasaki Medical School, Kurashiki, Japan). […] The LICR-LON-HN5 head and neck carcinoma cell line (HN5) was a gift from the Institute of Cancer Research, Surrey, U.K. HN5C12 was developed by single-cell cloning of HN5 followed by exposure to increasing concentrations of lapatinib. […] Cell growth inhibition was determined via CellTiter-Glo cell viability assays. […] BT474-J4 and HN5C12 were washed with PBS and plated in their culture media without lapatinib. […] ATP levels were determined by adding Cell Titer Glo0 (Promega), incubating for 20 minutes then the luminescent signal was read on the SpectraMax M5 plate with a 0.5 second integration time. Cell growth was calculated relative to vehicle (DMSO) treated control wells. […] Excess Over Highest Single Agent (EOHSA) is defined as a statistically significant improvement in the combination compared to the component monotherapies. […] Analysis was conducted using two-factor analysis of variance with interaction (model terms were dose of drug A, dose of drug B, and interaction between doses of drug A and B), followed by linear contrasts between each combination group and corresponding monotherapies. Analysis was conducted using SAS (version 9, provided by SAS Institute, Cary, N.C.). EOHSA at each dose was calculated as the minimum difference in average % inhibition between the combination and each monotherapy, from the appropriate ANOVA contrast. Since there are many comparisons for the % inhibition endpoint, p-value adjustment for multiple comparisons was performed. Hommel's procedure was implemented in order to improve the power while retaining […] Error Rate (FWE) control by using a sequentially rejective method. The p-values for both synergy and antagonism were calculated using this adjustment.

[5] = system: NCI-H441 lung carcinoma cells; experiment: Cell growth inhibition (CellTiter-Glo), NCI-H441; conditions: Homo sapiens, NCI-H441, 72 h, 3 days
[6] = system: HOP-92 lung carcinoma cells; experiment: Cell growth inhibition (CellTiter-Glo), HOP-92; conditions: Homo sapiens, HOP-92, 72 h, 3 days
Description: as §1

[7] = system: NCI-H1648 lung carcinoma cells; experiment: Cell growth inhibition (CellTiter-Glo), NCI-H1648; conditions: Homo sapiens, NCI-H1648, 72 h, 3 days
Description: as §2

[8] = system: KPL-4 breast cancer cells; experiment: Cell growth inhibition (CellTiter-Glo), KPL-4; conditions: Homo sapiens, KPL4, 72 h, 3 days
Description: as §1

[9] = system: Detroit 562 head and neck squamous cell carcinoma cells; experiment: Cell growth inhibition (CellTiter-Glo), Detroit 562; conditions: Homo sapiens, Detroit 562, 72 h, 3 days
Description: as §1

[10] = system: SCC15 head and neck squamous cell carcinoma cells; experiment: Cell growth inhibition (CellTiter-Glo), SCC15; conditions: Homo sapiens, SCC-15, 72 h, 3 days
Description: as §2

| IC50 ([1]; lung_H2170, +HGF (2 ng/mL)) [µM] | IC50 ([1]; lung_H2170, −HGF) [µM] | IC50 ([2]; hn_HN5C2, +HGF (2 ng/mL)) [µM] | IC50 ([2]; hn_HN5C2, −HGF) [µM] | IC50 ([3]; hn_HN5, +HGF (2 ng/mL)) [µM] | IC50 ([3]; hn_HN5, −HGF) [µM] | IC50 ([4]; lung_H1573, +HGF (2 ng/mL)) [µM] | IC50 ([4]; lung_H1573, −HGF) [µM] | IC50 ([5]; lung_H441, +HGF (2 ng/mL)) [µM] | IC50 ([5]; lung_H441, −HGF) [µM] | IC50 ([6]; lung_HOP-92, +HGF (2 ng/mL)) [µM] | IC50 ([6]; lung_HOP-92, −HGF) [µM] | IC50 ([7]; lung_H1648, +HGF (2 ng/mL)) [µM] | IC50 ([7]; lung_H1648, −HGF) [µM] | IC50 ([8]; breast_KPL4, +HGF (2 ng/mL)) [µM] | IC50 ([8]; breast_KPL4, −HGF) [µM] | IC50 ([9]; hn_Detroit562, +HGF (2 ng/mL)) [µM] | IC50 ([9]; hn_Detroit562, −HGF) [µM] | IC50 ([10]; hn_SCC15, +HGF (2 ng/mL)) [µM] | IC50 ([10]; hn_SCC15, −HGF) [µM] | SMILES |
| --- | --- | --- | --- | --- | --- | --- | --- | --- | --- | --- | --- | --- | --- | --- | --- | --- | --- | --- | --- | --- |
| 7.74 | 1.28 | > 10 | > 10 | > 10 | 6.72 | > 10 | > 10 | > 10 | > 10 | > 10 | > 10 | > 10 | > 10 | > 10 | > 10 | > 10 | > 10 | 7.7 | 1.62 | C#Cc1cccc(Nc2ncnc3cc(OCCOC)c(OCCOC)cc23)c1 [Erlotinib, N-(3-ethynylphenyl)-6,7-bis{[2-(methyloxy)ethyl]oxy}-4-quinazolinamine] |
| 4.24 | 0.26 | 3.85 | 4.12 | 3.69 | 2.37 | > 10 | 9.83 | > 10 | > 10 | > 10 | > 10 | > 10 | 7.39 | 0.89 | 1 | 4.64 | 4.02 | 3.81 | 1.08 | CS(=O)(=O)CCNCc1ccc(-c2ccc3ncnc(Nc4ccc(OCc5cccc(F)c5)c(Cl)c4)c3c2)o1 [Lapatinib, N-(3-chloro-4-{[(3-fluorophenyl)methyl]oxy}phenyl)-6-[5-({[2-(methylsulfonyl)ethyl]amino}methyl)-2-furanyl]-4-quinazolinamine] |
